Each compound was assayed against T1, Melanin-concentrating hormone receptor 1 (Homo sapiens, UniProt Q99705) (assay: Inhibitory concentration against human MCH-R1-stimulated [Ca2+] influx).
T1 sequence (Q99705 whole entry): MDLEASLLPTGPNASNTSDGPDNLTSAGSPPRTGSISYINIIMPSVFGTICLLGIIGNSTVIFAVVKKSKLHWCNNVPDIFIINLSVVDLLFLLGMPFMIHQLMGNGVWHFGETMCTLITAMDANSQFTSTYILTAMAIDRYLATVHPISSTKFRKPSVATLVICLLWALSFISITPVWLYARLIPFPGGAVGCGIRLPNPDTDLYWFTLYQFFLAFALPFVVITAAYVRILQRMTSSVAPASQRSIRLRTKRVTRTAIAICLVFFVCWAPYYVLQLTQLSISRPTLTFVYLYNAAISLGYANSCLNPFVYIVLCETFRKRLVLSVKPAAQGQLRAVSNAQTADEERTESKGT

| SMILES | IC50 |
| --- | --- |
| CNC1CCN(c2ccc(NC(=O)c3ccc(-c4ccccc4)cc3)cc2)C1 (stereo unspecified) | 166 nM |

The compounds below were run against T1, Melanin-concentrating hormone receptor 1 (assay: Binding affinity towards human MCH-R1 evaluated by its ability to displace radioligand [125I]Tyr13]-MCH).

| SMILES | Ki |
| --- | --- |
| CN(Cc1ccccc1)C1CCN(c2ccc(NC(=O)c3ccc(-c4ccccc4)cc3)cc2)C1 (stereo unspecified) | 31 nM |
| CN(CC1CC1)C1CCN(c2ccc(NC(=O)c3ccc(-c4ccccc4)cc3)cc2)C1 (stereo unspecified) | 5.5 nM |
| CN(C)C1CCN(c2ccc(NC(=O)c3ccc(-c4ccccc4)cc3)cc2)C1 (stereo unspecified) | 5.2 nM |
| COc1ccc(CCCNC(=O)Nc2ccc(N3CCC(N(C)C)C3)cc2)cc1 (stereo unspecified) | 52 nM |
| CN(C)C1CCN(c2ccc(NC(=O)c3ccc4c(c3)C(=O)c3ccccc3-4)cc2)C1 (stereo unspecified) | > 10000 nM |
| CN(C)C1CCN(c2ccc(NC(=O)c3ccc(-c4cccs4)cc3)cc2)C1 (stereo unspecified) | 34 nM |
| CN(C(=O)OC(C)(C)C)C1CCN(c2ccc(NC(=O)c3ccc(-c4ccccc4)cc3)cc2)C1 (stereo unspecified) | > 10000 nM |
| CN(C)C1CCN(c2ccc(NC(=O)C3CCC(c4ccc(Cl)cc4)CC3)cc2)C1 (stereo unspecified) | 12 nM |
| CN(C)C1CCN(c2ccc(NC(=O)NCCCc3ccccc3)cc2)C1 (stereo unspecified) | 43 nM |
| CN(C)C1CCN(c2ccc(NC(=O)CCC(=O)c3ccc(Cl)cc3)cc2)C1 (stereo unspecified) | 13 nM |
| CN(C)C1CCN(c2ccc(NC(=O)Cc3ccc(-c4ccccc4)cc3)cc2)C1 (stereo unspecified) | 4300 nM |
| CN(CCCc1ccccc1)C1CCN(c2ccc(NC(=O)c3ccc(-c4ccccc4)cc3)cc2)C1 (stereo unspecified) | 8.6 nM |
| COc1ccc(-c2ccc(C(=O)Nc3ccc(N4CCC(N(C)C)C4)cc3)cn2)cc1 (stereo unspecified) | 16 nM |
| CN(C)C1CCN(c2ccc(NC(=O)c3ccc(-n4ccnc4)cc3)cc2)C1 (stereo unspecified) | > 10000 nM |
| CN(C)C1CCN(c2ccc(NC(=O)c3ccc(N4CCCCC4)nc3)cc2)C1 (stereo unspecified) | 2400 nM |
| CCN(C)C1CCN(c2ccc(NC(=O)c3ccc(-c4ccccc4)cc3)cc2)C1 (stereo unspecified) | 5.9 nM |
| CCN1CCN(c2ccc(C(=O)Nc3ccc(N4CCC(N(C)C)C4)cc3)cn2)CC1 (stereo unspecified) | > 10000 nM |
| CN(C)C1CCN(c2ccc(NC(=O)C3CCC(c4ccccc4)CC3)cc2)C1 (stereo unspecified) | 14 nM |
| CN(C)C1CCN(c2ccc(NC(=O)c3ccc(-c4ccccc4)nc3)cc2)C1 (stereo unspecified) | 110 nM |
| CN(C)C1CCN(c2ccc(NC(=O)CCCC(=O)c3ccccc3)cc2)C1 (stereo unspecified) | 250 nM |
| CN(C)C1CCN(c2ccc(NC(=O)c3ccc(-c4cnco4)cc3)cc2)C1 (stereo unspecified) | > 10000 nM |
| CN(Cc1ccccn1)C1CCN(c2ccc(NC(=O)c3ccc(-c4ccccc4)cc3)cc2)C1 (stereo unspecified) | 130 nM |
| CNC1CCN(c2ccc(NC(=O)c3ccc(-c4ccccc4)cc3)cc2)C1 (stereo unspecified) | 3.1 nM |
| CN(C)C1CCN(c2ccc(NC(=O)c3ccc(Oc4ccccc4)cc3)cc2)C1 (stereo unspecified) | > 10000 nM |
| CC(=O)N(C)C1CCN(c2ccc(NC(=O)c3ccc(-c4ccccc4)cc3)cc2)C1 (stereo unspecified) | 3000 nM |
